# Where a name gives a salt, the structure may show the parent alone. The source made the active and inactive calls.
# Experiments:
# [1] = target: T1, Cytochrome P450 1A2 (Homo sapiens, UniProt P05177);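 further: PubChem cytochrome P450 panel assay, CYP1A2 panel member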
# T1 sequence (P05177 whole entry): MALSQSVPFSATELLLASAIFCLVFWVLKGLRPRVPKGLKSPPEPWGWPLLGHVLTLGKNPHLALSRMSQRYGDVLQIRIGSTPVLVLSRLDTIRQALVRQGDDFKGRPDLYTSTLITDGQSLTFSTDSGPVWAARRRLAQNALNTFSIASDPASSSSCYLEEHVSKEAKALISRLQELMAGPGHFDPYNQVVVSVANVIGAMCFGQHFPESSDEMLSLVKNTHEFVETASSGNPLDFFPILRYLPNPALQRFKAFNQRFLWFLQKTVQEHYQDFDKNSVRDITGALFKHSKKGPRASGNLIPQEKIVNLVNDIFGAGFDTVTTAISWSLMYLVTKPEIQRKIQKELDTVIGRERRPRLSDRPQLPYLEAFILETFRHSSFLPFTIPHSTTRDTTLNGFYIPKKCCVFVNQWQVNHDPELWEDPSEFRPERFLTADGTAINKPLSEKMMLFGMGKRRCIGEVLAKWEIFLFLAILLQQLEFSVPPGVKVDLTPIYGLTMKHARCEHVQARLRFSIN
# [2] = target: 72 kDa type IV collagenase (Homo sapiens, UniProt P08253); assay: Dose Response validation of uHTS RPN11 inhibitor hits using a MMP-2 Fluorescence assay.; format: functional
# Sequence of 72 kDa type IV collagenase (P08253 whole entry): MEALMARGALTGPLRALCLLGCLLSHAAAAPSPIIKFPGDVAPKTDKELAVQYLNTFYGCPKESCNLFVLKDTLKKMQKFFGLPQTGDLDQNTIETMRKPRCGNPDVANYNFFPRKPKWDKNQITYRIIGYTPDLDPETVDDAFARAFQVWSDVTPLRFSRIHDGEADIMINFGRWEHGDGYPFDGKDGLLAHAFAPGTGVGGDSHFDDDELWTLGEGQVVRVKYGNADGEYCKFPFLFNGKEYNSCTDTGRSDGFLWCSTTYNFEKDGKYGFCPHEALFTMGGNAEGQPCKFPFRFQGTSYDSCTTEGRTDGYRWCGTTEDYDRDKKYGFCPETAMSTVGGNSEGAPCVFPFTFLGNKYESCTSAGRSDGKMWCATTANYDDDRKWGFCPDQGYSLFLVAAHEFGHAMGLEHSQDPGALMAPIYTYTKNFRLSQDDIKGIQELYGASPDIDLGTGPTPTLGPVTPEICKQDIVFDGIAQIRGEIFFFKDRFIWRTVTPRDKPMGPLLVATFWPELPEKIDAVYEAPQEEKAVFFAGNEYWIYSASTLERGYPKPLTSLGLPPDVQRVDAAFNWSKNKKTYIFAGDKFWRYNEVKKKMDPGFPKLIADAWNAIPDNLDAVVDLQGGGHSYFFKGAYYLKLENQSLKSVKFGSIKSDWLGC
# [3] = target: Prothrombin (Bos taurus, UniProt P00735); assay: thrombin protease inhibitors – biochemical, fluorescence polarization, uHTS hits, dose response (AID 602369); format: functional
# [4] = target: 26S proteasome non-ATPase regulatory subunit 14 (Homo sapiens, UniProt O00487); assay: inhibition of proteasome subunit RPN11 – biochemical, fluorescence polarization, uHTS hits, confirmation (AID 602368); format: functional
# Sequence of 26S proteasome non-ATPase regulatory subunit 14 (O00487 whole entry): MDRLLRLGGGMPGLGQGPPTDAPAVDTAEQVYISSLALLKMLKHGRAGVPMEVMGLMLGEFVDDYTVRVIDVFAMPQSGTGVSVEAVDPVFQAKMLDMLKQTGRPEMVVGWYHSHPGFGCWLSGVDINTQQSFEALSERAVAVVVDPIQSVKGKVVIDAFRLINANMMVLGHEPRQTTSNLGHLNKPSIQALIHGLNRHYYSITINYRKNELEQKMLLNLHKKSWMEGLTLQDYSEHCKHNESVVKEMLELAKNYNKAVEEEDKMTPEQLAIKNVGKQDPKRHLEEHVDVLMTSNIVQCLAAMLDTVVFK
# [5] = target: Cytochrome P450 2D6 (Homo sapiens, UniProt P10635);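 further: CYP2D6 member of a cytochrome P450 panel assay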
# Sequence of Cytochrome P450 2D6 (P10635 whole entry): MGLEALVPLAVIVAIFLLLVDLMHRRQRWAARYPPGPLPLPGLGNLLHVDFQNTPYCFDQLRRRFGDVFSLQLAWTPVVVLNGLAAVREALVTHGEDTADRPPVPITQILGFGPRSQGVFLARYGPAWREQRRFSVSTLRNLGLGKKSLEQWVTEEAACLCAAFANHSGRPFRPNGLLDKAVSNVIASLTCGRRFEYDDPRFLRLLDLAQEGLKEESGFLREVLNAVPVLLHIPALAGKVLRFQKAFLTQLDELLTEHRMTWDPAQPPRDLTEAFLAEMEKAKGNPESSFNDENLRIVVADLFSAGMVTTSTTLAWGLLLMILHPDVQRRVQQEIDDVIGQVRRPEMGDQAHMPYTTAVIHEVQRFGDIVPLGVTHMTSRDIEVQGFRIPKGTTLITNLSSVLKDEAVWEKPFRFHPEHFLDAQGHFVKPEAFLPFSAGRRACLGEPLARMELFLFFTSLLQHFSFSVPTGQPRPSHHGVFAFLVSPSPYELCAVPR
# [6] = blockers of CAL PDZ–TMR peptide complex – biochemical, fluorescence polarization, untagged CAL PDZ, cherry-pick, set 2, dose response (AID 602254); format: functional
# [7] = target: Melanocortin receptor 4 (Homo sapiens, UniProt P32245); assay: inhibitors of MC4R cAMP signaling – cell-based, TR-FRET, biased antagonists, dose response (AID 602298); format: functional;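 further: antagonist potency against agonist-stimulated cAMP production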
# Sequence of Melanocortin receptor 4 (P32245 whole entry): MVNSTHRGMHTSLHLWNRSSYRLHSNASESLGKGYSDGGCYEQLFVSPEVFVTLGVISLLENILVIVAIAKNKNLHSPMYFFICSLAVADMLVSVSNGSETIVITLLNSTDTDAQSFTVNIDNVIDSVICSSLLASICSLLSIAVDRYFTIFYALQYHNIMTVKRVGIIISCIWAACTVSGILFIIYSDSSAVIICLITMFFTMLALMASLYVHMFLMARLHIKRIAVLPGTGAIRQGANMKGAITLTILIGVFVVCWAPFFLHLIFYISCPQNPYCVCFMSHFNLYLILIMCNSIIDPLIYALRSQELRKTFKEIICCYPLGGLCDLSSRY
# [8] = cAMP pathway inhibition in counterscreen cell line – TR-FRET cAMP detection, counter-screen for MC4R biased antagonist project, dose response (AID 602305); format: functional, cell-based;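 further: U2OS cells stimulated with forskolin near its EC80 as the cAMP inducer; potency is for inhibition of forskolin-stimulated cAMP signaling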
# [9] = Luminescence Cell-Based Dose Response HTS to Identify Activators of Luciferase Translation or Activity in H4 […] Cells. [Related pubchem assays: 1829 (Project Summary), 1814 (Primary HTS)]; format: functional
# [10] = system: H4; assay: Luminescence Cell-Based Dose Response HTS to Identify Activators of 5'UTR Stem-Loop Driven Prion Protein mRNA Translation in H4 Neuroglioblastoma Cells. [Related pubchem assays: 1829 (Project Summary), 1814 (Primary HTS)]; format: functional; conditions: Homo sapiens
# [11] = target: T2, Oxysterols receptor LXR-beta (Homo sapiens, UniProt P55055); format: functional, cell-based;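 further: agonist activity at LXR measured by a cell-based luminescence readout across a dose range, run as a counterscreen for daf-12 agonists; HEK293 cells with Gal4-LXR fusion and GAL4-driven luciferase reporter; potency for activation of Gal4-LXR reporter so compounds are agonists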
# T2 sequence (P55055 whole entry): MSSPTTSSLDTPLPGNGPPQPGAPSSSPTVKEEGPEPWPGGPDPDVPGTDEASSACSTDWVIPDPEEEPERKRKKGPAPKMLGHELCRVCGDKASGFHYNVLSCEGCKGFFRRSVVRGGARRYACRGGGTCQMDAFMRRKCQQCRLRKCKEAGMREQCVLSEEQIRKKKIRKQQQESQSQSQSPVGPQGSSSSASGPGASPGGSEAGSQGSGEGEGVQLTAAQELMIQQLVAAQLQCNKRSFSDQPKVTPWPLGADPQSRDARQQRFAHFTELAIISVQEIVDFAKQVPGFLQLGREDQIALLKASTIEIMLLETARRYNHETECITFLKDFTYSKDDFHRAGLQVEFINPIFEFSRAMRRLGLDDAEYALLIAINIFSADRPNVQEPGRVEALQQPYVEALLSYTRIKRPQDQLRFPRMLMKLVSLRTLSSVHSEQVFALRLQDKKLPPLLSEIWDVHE
# [12] = system: HeLa; assay: ATP-based viability loss in HeLa cells – cell-based, CellTiter-Glo luminescence, cherry-pick samples, cytotoxicity control for MITF activator project, dose response (AID 540259); format: functional; conditions: Homo sapiens
# [13] = Luminescence Cell-Based Dose Confirmation HTS to Identify Activators of 5'UTR Stem-Loop Driven Alpha-Synuclein mRNA Translation in H4 Neuroglioblastoma Cells. [Related pubchem assays: 1829 (Project Summary), 1814 (Primary HTS)]; format: functional
# [14] = system: HEK293; assay: optical interference in Abeta FP readout, dose response, artefact control for IDE activator project, biochemical, fluorescence polarization (AID 588442); format: functional, cell-based; conditions: Homo sapiens
# [15] = target: T3, Insulin-degrading enzyme (Homo sapiens, UniProt P14735); assay: cellular IDE activation of Abeta substrate cleavage – fluorescence polarization, HEK cells, dose response (AID 588439); format: functional, cell-based
# T3 sequence (P14735 whole entry): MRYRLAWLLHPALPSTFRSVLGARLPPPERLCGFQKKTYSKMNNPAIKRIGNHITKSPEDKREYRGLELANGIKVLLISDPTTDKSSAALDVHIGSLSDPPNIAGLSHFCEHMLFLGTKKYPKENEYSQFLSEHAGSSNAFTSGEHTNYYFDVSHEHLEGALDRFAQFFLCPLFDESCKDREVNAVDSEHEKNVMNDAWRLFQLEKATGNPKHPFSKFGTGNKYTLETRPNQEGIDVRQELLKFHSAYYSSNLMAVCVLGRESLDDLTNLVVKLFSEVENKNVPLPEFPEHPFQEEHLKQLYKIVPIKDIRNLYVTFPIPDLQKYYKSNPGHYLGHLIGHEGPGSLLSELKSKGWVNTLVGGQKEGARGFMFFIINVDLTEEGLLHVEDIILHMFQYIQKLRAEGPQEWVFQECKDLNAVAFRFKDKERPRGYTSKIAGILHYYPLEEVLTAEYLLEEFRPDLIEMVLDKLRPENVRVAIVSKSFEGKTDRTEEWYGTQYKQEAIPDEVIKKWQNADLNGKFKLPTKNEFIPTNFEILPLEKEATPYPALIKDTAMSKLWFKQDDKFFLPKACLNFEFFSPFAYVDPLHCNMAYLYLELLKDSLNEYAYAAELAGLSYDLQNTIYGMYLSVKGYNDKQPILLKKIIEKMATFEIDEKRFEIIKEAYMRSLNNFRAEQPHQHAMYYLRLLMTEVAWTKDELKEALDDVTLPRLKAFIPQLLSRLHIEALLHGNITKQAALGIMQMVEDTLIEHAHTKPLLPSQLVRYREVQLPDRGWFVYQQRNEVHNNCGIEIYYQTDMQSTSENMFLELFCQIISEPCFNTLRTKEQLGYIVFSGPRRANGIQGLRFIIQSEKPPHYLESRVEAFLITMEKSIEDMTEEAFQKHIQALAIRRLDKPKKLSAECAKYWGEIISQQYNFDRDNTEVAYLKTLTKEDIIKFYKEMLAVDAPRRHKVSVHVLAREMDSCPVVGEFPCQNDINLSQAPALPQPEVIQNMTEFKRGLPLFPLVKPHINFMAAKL
# [16] = target: T3, Insulin-degrading enzyme; assay: recombinant IDE activation, cell-free – biochemical, fluorescence polarization, counter-screen for IDE activator project, dose response (AID 588681)
# [17] = system: HEK293; assay: membrane integrity loss in HEK cells – cell-based, fluorescence, cytotoxicity control for IDE activator project, dose response (AID 588440); format: functional; conditions: Homo sapiens;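 further: cytotoxicity by LDH release measuring loss of membrane integrity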
# [18] = target: SUMO-activating enzyme (Homo sapiens, UniProt Q9UBT2); assay: blockers of SAE1/SAE2–UBC9 SUMO transfer – biochemical, HTRF, uHTS, primary screen (AID 2006); format: protein-complex assay
# Sequence of SUMO-activating enzyme (Q9UBE0 whole entry): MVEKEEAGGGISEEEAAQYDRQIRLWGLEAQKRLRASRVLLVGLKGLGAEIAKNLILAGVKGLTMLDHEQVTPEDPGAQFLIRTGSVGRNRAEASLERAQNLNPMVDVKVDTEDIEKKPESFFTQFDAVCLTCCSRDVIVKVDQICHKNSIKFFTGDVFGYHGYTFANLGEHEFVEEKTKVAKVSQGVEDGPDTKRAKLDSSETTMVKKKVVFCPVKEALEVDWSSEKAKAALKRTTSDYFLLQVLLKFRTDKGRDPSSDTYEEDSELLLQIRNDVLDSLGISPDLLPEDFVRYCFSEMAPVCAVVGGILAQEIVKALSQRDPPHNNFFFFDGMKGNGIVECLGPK
# Sequence of SUMO-activating enzyme (Q9UBT2 whole entry): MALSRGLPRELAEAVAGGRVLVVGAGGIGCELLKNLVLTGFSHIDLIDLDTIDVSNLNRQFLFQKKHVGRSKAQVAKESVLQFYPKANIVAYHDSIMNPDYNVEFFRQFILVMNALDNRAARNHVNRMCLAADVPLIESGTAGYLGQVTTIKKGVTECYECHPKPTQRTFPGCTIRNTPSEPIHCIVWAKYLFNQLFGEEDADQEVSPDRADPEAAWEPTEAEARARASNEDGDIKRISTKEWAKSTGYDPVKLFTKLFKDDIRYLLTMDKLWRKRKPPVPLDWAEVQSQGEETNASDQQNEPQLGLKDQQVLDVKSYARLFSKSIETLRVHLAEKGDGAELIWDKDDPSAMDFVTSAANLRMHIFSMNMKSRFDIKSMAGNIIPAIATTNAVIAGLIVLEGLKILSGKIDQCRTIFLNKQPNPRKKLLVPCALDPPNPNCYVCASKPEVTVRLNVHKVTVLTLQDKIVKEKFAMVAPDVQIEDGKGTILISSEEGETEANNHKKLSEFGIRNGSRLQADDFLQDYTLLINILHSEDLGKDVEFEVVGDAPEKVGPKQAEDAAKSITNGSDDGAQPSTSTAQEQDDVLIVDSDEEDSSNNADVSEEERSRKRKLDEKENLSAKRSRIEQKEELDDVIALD
# [19] = target: T4, Apoptotic protease-activating factor 1 (Homo sapiens, UniProt O14727); format: functional
# T4 sequence (O14727 whole entry): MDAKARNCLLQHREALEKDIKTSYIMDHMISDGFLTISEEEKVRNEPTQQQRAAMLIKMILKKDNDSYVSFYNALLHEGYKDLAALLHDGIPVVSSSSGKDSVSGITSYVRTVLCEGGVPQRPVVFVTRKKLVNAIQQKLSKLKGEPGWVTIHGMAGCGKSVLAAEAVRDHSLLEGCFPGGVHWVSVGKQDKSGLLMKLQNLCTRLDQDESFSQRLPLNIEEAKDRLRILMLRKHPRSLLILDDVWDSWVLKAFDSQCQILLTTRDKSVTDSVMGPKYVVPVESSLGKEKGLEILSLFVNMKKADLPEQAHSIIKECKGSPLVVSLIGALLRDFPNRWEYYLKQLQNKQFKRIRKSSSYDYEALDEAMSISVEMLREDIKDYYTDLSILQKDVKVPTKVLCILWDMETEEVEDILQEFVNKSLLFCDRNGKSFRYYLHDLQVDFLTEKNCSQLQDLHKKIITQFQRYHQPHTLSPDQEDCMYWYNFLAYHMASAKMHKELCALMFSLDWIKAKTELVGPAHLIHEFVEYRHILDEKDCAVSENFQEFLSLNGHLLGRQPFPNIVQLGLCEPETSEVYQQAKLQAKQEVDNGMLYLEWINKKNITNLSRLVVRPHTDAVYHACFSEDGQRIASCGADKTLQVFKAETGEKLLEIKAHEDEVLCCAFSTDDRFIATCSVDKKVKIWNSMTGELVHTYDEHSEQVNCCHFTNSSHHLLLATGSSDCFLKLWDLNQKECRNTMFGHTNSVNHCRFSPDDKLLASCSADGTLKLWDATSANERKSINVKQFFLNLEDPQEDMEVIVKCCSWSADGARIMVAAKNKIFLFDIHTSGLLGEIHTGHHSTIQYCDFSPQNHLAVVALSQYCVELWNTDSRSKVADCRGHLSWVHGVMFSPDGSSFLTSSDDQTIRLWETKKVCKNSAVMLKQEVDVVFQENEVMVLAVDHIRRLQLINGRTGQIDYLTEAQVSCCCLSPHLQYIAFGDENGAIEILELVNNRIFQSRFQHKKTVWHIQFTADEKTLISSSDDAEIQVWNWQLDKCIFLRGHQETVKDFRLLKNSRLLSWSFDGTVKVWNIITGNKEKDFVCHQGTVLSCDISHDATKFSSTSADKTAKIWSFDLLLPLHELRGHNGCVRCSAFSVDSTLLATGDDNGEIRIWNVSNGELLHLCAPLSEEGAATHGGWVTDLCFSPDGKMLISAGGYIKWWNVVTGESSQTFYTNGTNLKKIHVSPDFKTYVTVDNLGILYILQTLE
# [20] = target: T5, Bcl-2-related protein A1 (Mus musculus, UniProt Q07440); format: functional;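 further: confirmatory dose–response counterscreen on Bfl-1, used to check hits from a UBC13 polyubiquitin inhibitor campaign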
# T5 sequence (Q07440 whole entry): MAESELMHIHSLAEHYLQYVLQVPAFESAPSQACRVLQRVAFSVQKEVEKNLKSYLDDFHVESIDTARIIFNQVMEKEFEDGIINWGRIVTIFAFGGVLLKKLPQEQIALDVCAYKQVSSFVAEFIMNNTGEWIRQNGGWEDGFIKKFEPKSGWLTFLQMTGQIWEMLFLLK
# [21] = target: T6, Ubiquitin-conjugating enzyme E2 N (Homo sapiens, UniProt P61088); format: functional
# T6 sequence (P61088 whole entry): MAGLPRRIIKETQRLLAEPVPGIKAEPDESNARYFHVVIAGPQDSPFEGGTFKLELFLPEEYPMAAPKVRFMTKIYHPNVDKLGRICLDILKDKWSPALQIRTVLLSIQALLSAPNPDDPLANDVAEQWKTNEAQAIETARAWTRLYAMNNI
# [22] = target: T6, Ubiquitin-conjugating enzyme E2 N; format: functional; remark: listed apart in the source
# [23] = system: INS1; assay: INS-1E survival protection against cytokine death – cell-based, luminescence, retest, dose response (AID 449756); format: functional; conditions: Rattus norvegicus;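 further: cell death triggered by IL-1 beta plus TNF-alpha plus IFN-gamma mixture; protective hits raise ATP signal compared with cytokine alone wells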
# [24] = system: HEK293; assay: EBV LMP1 TES2 canonical NF-kB signalling blockers – cell-based, HEK293, luciferase, cherry-pick, dose response (AID 588343); format: functional; conditions: Homo sapiens
# [25] = Luminescence Cell-Based Dose Retest to Confirm Inhibitors of Cancer Stem Cells. [Related pubchem assays (depositor defined):AID2717, AID2721]; format: functional; conditions: Homo sapiens
# [26] = target: Neurotensin receptor type 1 (Homo sapiens, UniProt P30989); format: functional;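 further: Image-based confirmatory dose-response assay measuring agonist activity at NTR1; NTR1-expressing U2OS osteosarcoma cells imaged for beta-arrestin GFP spot formation; agonist potency where compounds increase beta-arrestin recruitment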
# Sequence of Neurotensin receptor type 1 (P30989 whole entry): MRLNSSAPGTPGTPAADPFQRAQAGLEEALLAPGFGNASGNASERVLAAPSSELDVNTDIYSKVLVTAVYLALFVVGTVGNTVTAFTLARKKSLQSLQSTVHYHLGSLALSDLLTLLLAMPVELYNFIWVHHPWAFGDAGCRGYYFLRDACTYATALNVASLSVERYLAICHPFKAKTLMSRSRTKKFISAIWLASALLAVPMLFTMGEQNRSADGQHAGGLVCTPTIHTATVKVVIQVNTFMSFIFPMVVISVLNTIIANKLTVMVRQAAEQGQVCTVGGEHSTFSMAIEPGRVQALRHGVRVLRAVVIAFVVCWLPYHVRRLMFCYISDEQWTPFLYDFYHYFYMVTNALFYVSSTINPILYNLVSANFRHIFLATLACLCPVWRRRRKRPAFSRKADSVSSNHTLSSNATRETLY
# [27] = HEK-293T cell viability reduction – luminescence, B-cell screen hits, cytotoxicity control for BCR NF-kB inhibitor project, dose response (AID 489021); format: functional, cell-based;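 further: HEK-293T cells carrying an NF-kB luciferase reporter; cells exposed to compound for about 14 hours before viability readout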
smiles,measurement,setting,value
CN1/C(=C\C(=O)COC(=O)Cn2nnc(-c3ccccc3)n2)C(C)(C)c2ccccc21,AC50,[1],1.58 µM (inconclusive)
same,IC50,[2],> 100 µM (inactive)
same,IC50,[3],51.6 µM (active)
same,IC50,[4],34.5 µM (active)
same,AC50,[5],31.6 µM (inconclusive)
Cc1cc2ccccc2n1CCNCc1c(C(=O)N2CCOCC2)nc2ccccn12,AC50,[6],110 µM (active)
CCOC(=O)c1c(NC(=O)C(C)OC(=O)C2=COCCO2)sc2c1CCCC2 (stereo unspecified),IC50,[7],> 7.18 µM (active)
same,IC50,[8],> 64.6 µM (inactive)
Cc1nn(C(=O)c2cccs2)c(N)c1-c1ccccc1,EC50,[9],19 µM (active)
same,EC50,[10],> 120 µM (not active)
same,EC50,[11],> 67.5 µM (inactive)
same,AC50,[12],30.1 µM (active)
same,EC50,[13],13.7 µM (active)
O=C(NCCSc1ccc(Br)cc1)c1ccc2[nH]cnc2c1,EC50,[14],> 56 µM (inactive)
same,EC50,[15],> 54.7 µM (inactive)
same,EC50,[16],> 54.7 µM (inactive)
same,IC50,[17],> 89.3 µM (inactive)
Sc1nnc(-c2cc(-c3ccccc3)[nH]n2)n1/N=C/c1ccc(Cl)c(Cl)c1,IC50,[2],> 100 µM (inactive)
same,IC50,[3],> 100 µM (inactive)
same,IC50,[4],8.54 µM (active)
same,IC50,[18],49.8 µM (active)
C#CCOCCOCCOCCNc1nc(N2CCN(C(=O)CCCCCCCCCCNC(=O)Cn3cc(CCCCCN)nn3)CC2)nc(N2CCN(C(=O)CCCCCCCCCCNC(=O)[C@@H]([C@H](C)O)n3cc(C)nn3)CC2)n1,IC50,[19],36.7 µM (active)
same,EC50,[14],> 54.7 µM (inactive)
same,EC50,[15],> 6.07 µM (active)
same,IC50,[20],> 20 µM (inactive)
same,EC50,[16],> 54.7 µM (inactive)
same,IC50,[17],17.8 µM (inactive)
same,IC50,[21],6.62 µM (active)
same,IC50,[22],10.7 µM (active)
CNC(=O)c1cc(Oc2ccc(NC(=O)Nc3ccc(Cl)c(C(F)(F)F)c3)cc2)ccn1 [SORAFENIB TOSYLATE],IC50,[7],4.48 µM (active)
same,AC50,[23],6.78 µM (active)
same,IC50,[8],> 64.6 µM (inactive)
same,AC50,[24],1.6 µM (active)
same,AC50,[25],2.04 µM (active)
same,EC50,[26],14.6 µM (active)
same,IC50,[27],70.6 µM (inactive)
